Assay results: patent publication US20090054404A1, “USE OF R-10-HYDROXY-10,11-DIHYDRO-CARBAMAZEPINE IN NEUROPATHIC PAIN” (priority 2003, published 2009)

What was measured:
[1] = system: neuropathic guinea-pigs; test: Reversal of mechanical hyperalgesia in a model of neuropathic pain (partial sciatic nerve ligation, paw withdrawal threshold); format: in vivo, guinea pig
Description: Neuropathic hyperalgesia is induced by partial ligation of the left sciatic nerve (Seltzer et al, Pain 43, 1990, 205-218; Campbell et al, Neuroscience 87, 1998, 527-532). Briefly, male Dunkin Hartley guinea pigs (200-250 g) are anaesthetized with isoflurane in N2O:O2, the left sciatic nerve exposed at mid thigh level through a small incision and ⅓ to ½ of the nerve thickness tightly ligated within a 7.0 silk suture. The wound is closed and the animals are allowed to recover from surgery for 12 to 15 days.
Mechanical hyperalgesia is assessed by measuring paw withdrawal thresholds to an increasing pressure stimulus placed onto the dorsal surface of the paw using an analgesymeter (Ugo-Basile, Milan) with a cut-off of 250 g. Withdrawal are measured on both the ipsilateral (ligated) and contralateral (unligated) paw prior to and then up to 6 h following drug or vehicle administration. Reversal of hyperalgesia at each time point is calculated according to the following formula, which uses the contralateral paw as a reference: […]
(§1) The enantiomers of the compound of formula I are administered daily in 0.5% methyl-cellulose/water, with Trileptal™ included in each experiment as positive control. Each experiment uses 6 randomly assigned animals per treatment group. Statistical analysis is carried out on withdrawal threshold data comparing test to vehicle.

[2] = system: neuropathic guinea-pigs; test: Side-effects observed after administration in the neuropathic pain model; format: in vivo, guinea pig
Method: as §1
The R-enantiomer of the compound of formula I produces a dose-related reversal of mechanical hyperalgesia in neuropathic guinea-pigs. A maximum reversal of 73% is observed 1 h following administration with a calculated D50 value of 47 mg/kg.

[3] = 1 h following administration, neuropathic guinea-pigs
[4] = highest dose tested (100 mg/kg)

SMILES | calculated D50 value (reversal of mechanical hyperalgesia) [1, 3] [mg/kg] | maximum reversal of mechanical hyperalgesia [1, 3] [%] | duration of anti-hyperalgesic effect ([1]; 6 h following administration) | side-effects ([2]; highest dose) | anti-hyperalgesic activity [1, 4] | apparent maximal reversal of hyperalgesia [1, 4] [%] | anti-hyperalgesic activity ([1]; lower doses (below 100 mg/kg)) | side-effects ([2]; at doses that reverse mechanical hyperalgesia)
NC(=O)N1c2ccccc2C[C@@H](O)c2ccccc21 (single isomer, unassigned) [R-enantiomer, R(−)-10,11-dihydro-10-hydroxy-5H-dibenzo[b,f]azepine-5-carboxamide] | 47 | 73 | significant activity | comparatively mild side-effect | – | – | – | –
NC(=O)N1c2ccccc2C[C@H](O)c2ccccc21 (single isomer, unassigned) [S-enantiomer, S(+)-10,11-dihydro-10-hydroxy-5H-dibenzo[b,f]azepine-5-carboxamide] | – | – | – | – | observed | 55 | no significant effect | marked side-effects, principally ataxia and catalepsy
